Results reported in article PMC8092647, “Assessment of carbapenems in a mouse model of Mycobacterium tuberculosis infection” (PLoS ONE, 2021).
Entries after “also recorded” stand apart in the source; their conditions may differ. Where two headings read alike, the source gives them in different places.

How the values were obtained:
M. tuberculosis H37Rv [1] = assay: Minimum inhibitory concentration (MIC) by micro broth dilution, read by visual inspection of the bacterial pellet after 14 d; assay type: cell-based; conditions: Mycobacterium tuberculosis, 336 h
[2] = Mouse plasma pharmacokinetics after a single 25 mg/kg sc dose (LC-MS, non-compartmental model); conditions: for %T>MIC: female BALB/c mice, single 25 mg/kg sc, percentage of time above the MIC over 3 h; for AUC(0-t) / Cmax / half-life / concentration at 3 h: female, BALB/c, mouse, plasma, sc, 25 mg/kg
M. tuberculosis = test system: M. tuberculosis; parameters: method as in Chambers et al. [7] (imipenem), Kumar et al. [6] (biapenem); conditions: acute M. tuberculosis infection model in mice; ref Chambers et al. [7] (imipenem), Kumar et al. [6] (biapenem); cited from earlier work
[3] = female, BALB/c, mouse, in vivo, sc, 25 mg/kg
in vivo = conditions: female, BALB/c, mouse, sc, 25 mg/kg
M. tuberculosis H37Rv [4] = assay: Sub-acute mouse model of M. tuberculosis infection, lung CFU burden; assay type: in vivo, BALB/c mice; conditions: for onset of activity in infected mice (reduction of lung burden at one week vs no-treatment group): 400 mg/kg bid sc + 75 mg/kg clavulanate, little or no reduction at one week; for efficacy in comparison (lung M. tuberculosis burden): 1 and 3 weeks
[5] = M. tuberculosis H37Rv, 7H9 broth without Tween-80, 14 d, drug alone without clavulanate, read-out: MIC
[6] = carbapenems 400 mg/kg bid sc + 75 mg/kg clavulanate, rifampin 10 mg/kg once daily orally

Row | Structure (SMILES) | MIC (M. tuberculosis H37Rv [1]; [5]) [µg/mL] | %T>MIC [2] | AUC(0-t) [2] [ng·h/mL] | Cmax [2] [ng/mL] | half-life [2] [min] | MIC (M. tuberculosis H37Rv [1]; H37RV) [µg/mL] | onset of activity in infected mice (reduction of lung burden at one week vs no-treatment group) (M. tuberculosis H37Rv [4]) | further results
1 | C[C@@H](O)[C@H]1C(=O)N2C(C(=O)[O-])=C(SC3Cn4cnc[n+]4C3)[C@H](C)[C@H]12 (stereo partly drawn) [Biapenem, reference compound] | 2.5 to 5 | 33–100% | 63300 | 55600 | 17.3 | – | – | onset of activity in infected mice (M. tuberculosis): delayed activity
2 | C[C@@H](O)[C@H]1C(=O)N2C(C(=O)O)=C(SCC(=O)OC(C)(C)C)[C@H](C)[C@H]12 [JSF-2196] | 2 to 4 | – | – | – | – | – | – | %T>MIC [3]: 17–33%; AUC(0-t) (in vivo): 9060 ng·h/mL; Cmax (in vivo): 20500 ng/mL; half-life (in vivo): 13.8 min
3 | CSC1=C(C(=O)[O-])N2C(=O)[C@H]([C@@H](C)O)[C@H]2[C@H]1C.[Na+] [JSF-2204, Sodium (4R,5S,6S)-6-((R)-1-hydroxyethyl)-4-methyl-3-(methylthio)-7-oxo-1-azabicyclo[3.2.0]hept-2-ene-2-carboxylate] | – | 33–100% | 23000 | 63000 | – | 0.25 to 0.5 | delayed activity | efficacy in comparison (lung M. tuberculosis burden) (M. tuberculosis H37Rv [4]; [6]): efficacy equivalent to that of meropenem; also recorded: inferior to rifampin; also recorded: statistically indistinguishable efficacy; also recorded: statistically equivalent performance to meropenem
4 | C[C@@H](O)[C@H]1C(=O)N2C(C(=O)O)=C(SCC(F)(F)F)[C@H](C)[C@H]12 [JSF-2415] | 4 to 8 | – | – | – | – | – | – | %T>MIC [3]: 17–33%; AUC(0-t) (in vivo): 12500 ng·h/mL; Cmax (in vivo): 34800 ng/mL; half-life (in vivo): 14.5 min
5 | C[C@@H](O)[C@H]1C(=O)N2C(C(=O)[O-])=C(SCCc3ccccc3)[C@H](C)[C@H]12.[Na+] [JSF-2417, Sodium (4R,5S,6S)-6-((R)-1-hydroxyethyl)-4-methyl-7-oxo-3-(phenethylthio)-1-azabicyclo[3.2.0]hept-2-ene-2-carboxylate] | – | 8.3–33% | 5740 | 5190 | 38.8 | 2 to 4 | delayed activity | concentration at 3 h [2]: 262 ng/mL; efficacy in comparison (lung M. tuberculosis burden) (M. tuberculosis H37Rv [4]; [6]): inferior
6 | C[C@@H](O)[C@H]1C(=O)N2C(C(=O)[O-])=C(SCCC(=O)N3CCOCC3)[C@H](C)[C@H]12.[Na+] [JSF-2700, Sodium (4R,5S,6S)-6-((R)-1-hydroxyethyl)-4-methyl-3-((3-morpholino-3-oxopropyl)thio)-7-oxo-1-azabicyclo[3.2.0]hept-2-ene-2-carboxylate] | – | 8.3–33% | 5930 | 17400 | 15.5 | 2 to 4 | – | concentration at 3 h [2]: 6 ng/mL
7 | C[C@@H](O)[C@H]1C(=O)N2C(C(=O)O)=C(S[C@@H]3CN[C@H](C(=O)N(C)C)C3)[C@H](C)[C@H]12 [Meropenem, reference compound] | 4 to 8 | <8.3% | 613 | 1340 | 27.8 | – | delayed activity | –
8 | C[C@@H](O)[C@H]1C(=O)N2C(C(=O)O)=C(SCCN=CN)C[C@H]12 [imipenem] | – | – | – | – | – | – | – | onset of activity in infected mice (M. tuberculosis): delayed activity
9 | CO[C@H]1/C=C/O[C@@]2(C)Oc3c(C)c(O)c4c(O)c(c(/C=N/N5CCN(C)CC5)c(O)c4c3C2=O)NC(=O)/C(C)=C\C=C\[C@H](C)[C@H](O)[C@@H](C)[C@@H](O)[C@@H](C)[C@H](OC(C)=O)[C@@H]1C [rifampin, reference compound] | – | – | – | – | – | – | – | effect on lung bacterial burden after one week of dosing (M. tuberculosis H37Rv [4]; rifampin 10 mg/kg once daily orally, 1 week): bacteriostatic effect; effect on lung bacterial burden after 3 weeks of dosing (M. tuberculosis H37Rv [4]; rifampin 10 mg/kg once daily orally, carbapenems 400 mg/kg bid sc + 75 mg/kg clavulanate, 3 weeks): bacteriostatic effect
